Measured values as given in patent publication US8637505B2, “Cyclic inhibitors of 11beta-hydroxysteroid dehydrogenase 1” (Boehringer Ingelheim International GmbH, priority 2009, dated 2014).

The compounds below were run against T1, 11β-HSD1 (Homo sapiens, UniProt P28845) (assay: In vitro inhibition of 11β-HSD1, HTRF detection of cortisol generated by human liver microsomes). Settings: at 100 nM; 100% indicates no inhibition, zero or below zero indicates complete inhibition; Biological Test Example B.
T1 construct: detecting cortisol generated from cortisterone by human liver microsomes; from tissue; host or cells: human liver microsomes
Assay type: biochemical
Procedure: The ratio of the two emission signals is then calculated (Em665*10000/Em615).

T1 sequence (P28845 whole entry): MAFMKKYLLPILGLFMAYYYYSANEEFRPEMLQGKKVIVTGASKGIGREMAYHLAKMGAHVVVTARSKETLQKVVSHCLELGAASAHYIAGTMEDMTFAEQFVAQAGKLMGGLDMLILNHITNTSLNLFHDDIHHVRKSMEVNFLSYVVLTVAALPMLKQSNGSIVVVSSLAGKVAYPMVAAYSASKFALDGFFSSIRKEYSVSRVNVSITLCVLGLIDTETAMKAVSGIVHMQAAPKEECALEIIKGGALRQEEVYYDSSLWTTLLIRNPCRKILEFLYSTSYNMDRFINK

| Compound | Average % control inhibition at 100 nM [%] |
| --- | --- |
| (S)-6-(2-Hydroxy-2-methyl-propyl)-6-phenyl-3-{(S)-1-[4′-(alkoxy)-biphenyl-4-yl]-ethyl}-[1,3]oxazinan-2-one [Example B1] | 0 |

Same assay, conditions: at 100 nM; 100% indicates no inhibition, zero or below zero indicates complete inhibition; Biological Test Example B; read-out: Average % control inhibition at 100 nM

| remaining activity at 0.1 µM [%] | Compound |
| --- | --- |
| 18 | COC(=O)COc1ccc(-c2ccc([C@H](C)N3CC[C@](CC(C)(C)O)(c4ccccc4)OC3=O)cc2)cc1 [Example B2, (4′-{(S)-1-[(S)-6-(2-Hydroxy-2-methyl-propyl)-2-oxo-6-phenyl-[1,3]oxazinan-3-yl]-ethyl}-biphenyl-4-yloxy)-acetic acid methyl ester] |

Same assay, conditions: at 100 nM; 100% indicates no inhibition, zero or below zero indicates complete inhibition; Biological Test Example C; read-out: Average % control inhibition at 100 nM

| remaining activity at 0.1 µM [%] | Compound |
| --- | --- |
| 60 | C[C@@H](c1ccc(-c2nnc(C(F)(F)F)s2)cc1)N1CC[C@](CC(C)(C)O)(c2ccccc2)OC1=O [Example C2, (S)-6-(2-Hydroxy-2-methyl-propyl)-6-phenyl-3-{(S)-1-[4-(5-trifluoromethyl-[1,3,4]thiadiazol-2-yl)-phenyl]-ethyl}-[1,3]oxazinan-2-one] |
| 30 | C[C@@H](c1ccc(C2CCOC2)cc1)N1CC[C@](CC(C)(C)O)(c2ccccc2)OC1=O (stereo partly drawn) [Example C4, (S)-6-(2-Hydroxy-2-methyl-propyl)-6-phenyl-3-{(S)-1-[4-(tetrahydro-furan-3-yl)-phenyl]-ethyl}-[1,3]oxazinan-2-one] |

Same assay, conditions: at 100 nM; 100% indicates no inhibition, zero or below zero indicates complete inhibition; Biological Test Example D; read-out: Average % control inhibition at 100 nM

| remaining activity at 0.1 µM [%] | Compound |
| --- | --- |
| -12 | C[C@@H](c1ccc(-c2ccc(OCCO)cc2)cc1)N1CC[C@](CC(C)(C)O)(c2ccccc2)OC1=O [Example D6, 3-{(S)-1-[4′-(2-Hydroxy-ethoxy)-biphenyl-4-yl]-ethyl}-(S)-6-(2-hydroxy-2-methyl-propyl)-6-phenyl-[1,3]oxazinan-2-one] |
| 3 | C[C@@H](c1ccc(-c2ccc(OCC(C)(C)O)cc2)cc1)N1CC[C@](CC(C)(C)O)(c2ccccc2)OC1=O [Example D7, 3-{(S)-1-[4′-(2-Hydroxy-2-methyl-propoxy)-biphenyl-4-yl]-ethyl}-(S)-6-(2-hydroxy-2-methyl-propyl)-6-phenyl-[1,3]oxazinan-2-one] |

Same assay, conditions: at 100 nM; 100% indicates no inhibition, zero or below zero indicates complete inhibition; Biological Test Example E

| Average % control inhibition at 100 nM [%] | Compound |
| --- | --- |
| 25 | (S)-6-(2-Hydroxy-2-methyl-propyl)-6-phenyl-3-((S)-1-{4-[2-(alkoxy)-pyridin-4-yl]-phenyl}-ethyl)-[1,3]oxazinan-2-one [Example E1] |

Same assay, conditions: read-out: Average % control inhibition at 100 nM

| remaining activity at 0.1 µM [%] | Compound |
| --- | --- |
| 92 | C[C@@H](c1ccc(C(N)=O)cc1)N1CC[C@](CC(C)(C)O)(c2ccccc2)OC1=O [Example 8, 4-{(S)-1-[(S)-6-(2-Hydroxy-2-methyl-propyl)-2-oxo-6-phenyl-[1,3]oxazinan-3-yl]-ethyl}-benzamide] |
| 20 | Cc1noc(C)c1-c1ccc([C@H](C)N2CC[C@](CC(C)(C)O)(c3ccccc3)OC2=O)cc1 [Example 10, 3-{(S)-1-[4-(3,5-Dimethyl-isoxazol-4-yl)-phenyl]-ethyl}-(S)-6-(2-hydroxy-2-methyl-propyl)-6-phenyl-[1,3]oxazinan-2-one] |
| 95 | Cc1nnc(-c2ccc([C@H](C)N3CC[C@](CC(C)(C)O)(c4ccccc4)OC3=O)cc2)n1C [Example 2, 3-{(S)-1-[4-(4,5-Dimethyl-4H-[1,2,4]triazol-3-yl)-phenyl]-ethyl}-(S)-6-(2-hydroxy-2-methyl-propyl)-6-phenyl-[1,3]oxazinan-2-one] |
| 10 | C[C@@H](c1ccc(-c2ccoc2)cc1)N1CC[C@](CC(C)(C)O)(c2ccccc2)OC1=O [Example 20, 3-[(S)-1-(4-Furan-3-yl-phenyl)-ethyl]-(S)-6-(2-hydroxy-2-methyl-propyl)-6-phenyl-[1,3]oxazinan-2-one] |
| 2 | Cc1nnc(-c2ccc([C@H](C)N3CC[C@](CC(C)C)(c4ccccc4)OC3=O)cc2)o1 (stereo in doubt) [Example 1, (S)-6-Isobutyl-3-{1-[4-(5-methyl-[1,3,4]oxadiazol-2-yl)-phenyl]-ethyl}-6-phenyl-[1,3]oxazinan-2-one] |
| 98 | C[C@@H](c1ccc(-c2nc3c(=O)n(C)c(=O)n(C)c3n2C)cc1)N1CC[C@](CC(C)(C)O)(c2ccccc2)OC1=O [Example 12, 8-(4-{(S)-1-[(S)-6-(2-Hydroxy-2-methyl-propyl)-2-oxo-6-phenyl-[1,3]oxazinan-3-yl]-ethyl}-phenyl)-1,3,9-trimethyl-3,9-dihydro-purine-2,6-dione] |
| 13 | C[C@@H](c1ccc(-c2ccsc2)cc1)N1CC[C@](CC(C)(C)O)(c2ccccc2)OC1=O [Example 11, (S)-6-(2-Hydroxy-2-methyl-propyl)-6-phenyl-3-[(S)-1-(4-thiophen-3-yl-phenyl)-ethyl]-[1,3]oxazinan-2-one] |
| 40 | Cc1nc(-c2ccc([C@H](C)N3CC[C@](CC(C)(C)O)(c4ccccc4)OC3=O)cc2)no1 [Example 6, (S)-6-(2-Hydroxy-2-methyl-propyl)-3-{(S)-1-[4-(5-methyl-[1,2,4]oxadiazol-3-yl)-phenyl]-ethyl}-6-phenyl-[1,3]oxazinan-2-one] |
| -2 | C[C@@H](c1ccc(-c2ccco2)cc1)N1CC[C@](CC(C)(C)O)(c2ccccc2)OC1=O [Example 13, 3-[(S)-1-(4-Furan-2-yl-phenyl)-ethyl]-(S)-6-(2-hydroxy-2-methyl-propyl)-6-phenyl-[1,3]oxazinan-2-one] |
| 48 | C[C@@H](c1ccc(-c2nnco2)cc1)N1CC[C@](CC(C)(C)O)(c2ccccc2)OC1=O [Example 5, (S)-6-(2-Hydroxy-2-methyl-propyl)-3-[(S)-1-(4-[1,3,4]oxadiazol-2-yl-phenyl)-ethyl]-6-phenyl-[1,3]oxazinan-2-one] |
| 38 | Cc1nnc(-c2ccc([C@H](C)N3CC[C@](CC(C)(C)O)(c4ccccc4)OC3=O)cc2)o1 [Example 3, (S)-6-(2-hydroxy-2-methyl-propyl)-3-{(S)-1-[4-(5-methyl-[1,3,4]oxadiazol-2-yl)-phenyl]-ethyl}-6-phenyl-[1,3]oxazinan-2-one] |
| 50 | C[C@@H](c1ccc(-c2ncon2)cc1)N1CC[C@](CC(C)(C)O)(c2ccccc2)OC1=O [Example 7, (S)-6-(2-Hydroxy-2-methyl-propyl)-3-[(S)-1-(4-[1,2,4]oxadiazol-3-yl-phenyl)-ethyl]-6-phenyl-[1,3]oxazinan-2-one] |
